Results reported in US7723070B2, “Overexpression of aminoacyl-tRNA synthetases for efficient production of engineered proteins containing amino acid analogues” (California Institute of Technology, priority 2000, dated 2010).

System: B834(DE3) or CAG18491 hosts with pQE15/pREP4 or pQE15-MRS/pREP4
Experiment: Translational activity: mDHFR synthesis, statements covering several bacterial hosts (with pQE15 or pQE15-MRS)
Type: cell-based, E. coli
Conditions: amino acids at 60 mg/liter, both bacterial hosts
Description: Methionine analogues were synthesized via alkylation of diethylacetamidomalonate, as previously described (As described in Example I, infra; J. C. M. van Hest, D. A. Tirrell, FEBS Lett. 1998, 428, 68-70). Cultures of B834(DE3)/pQE15-MRS/pREP4 or B834(DE3)/pQE15/pREP4 or CAG18491/pQE15-MRS/pREP4 or CAG18491/pQE15/pREP4 in M9AA media were grown to an optical density of 0.90, and the cells were sedimented by centrifugation. The M9AA medium was prepared by supplementing sterile M9 medium with […] of each of the amino acids, 1 mM MgSO4, 0.2 wt % glucose, 1 mg/ml thiamine chloride, and […] calcium chloride. The antibiotics ampicillin and kanamycin were added at concentrations of 200 mg/l and 35 mg/l, respectively.
Cells were washed three times with M9 salts and resuspended to an optical density of 0.90 in M9 test media containing 19 amino acids plus 1) neither methionine nor analogue (negative control); 2) methionine (60 mg/liter, positive control); or 3) an analogue of interest (60 mg/liter). To test the effect of increasing the level of supplementation of the analogues, a set of experiments was also conducted in which the medium was supplemented with 500 mg/liter of methionine or the amino acid analogue. Expression of mDHFR was induced by addition of 0.4 mM isopropyl β-D-thiogalactopyranoside (IPTG), and protein synthesis was monitored after 4.5 hours.

SMILES | target protein mDHFR in SDS-PAGE
NC(CCCC(F)(F)F)C(=O)O (racemic) [Analogue 6, DL-6,6,6-trifluoro-2-amino hexanoic acid] | not observed
C=CCOC[C@H](N)C(=O)O (racemic) [Analogue 10, o-allylserine] | not observed
C#CCC(N)C(=O)O (stereo not drawn) [Analogue 13, propargylglycine] | not observed
